Biological target: Axl kinase (Homo sapiens (Human), UniProt P30530)
Experiment: Axl kinase assay (AlphaScreen)
Format: biochemical
Settings: activity level class

Sequence of Axl kinase (P30530 26-894): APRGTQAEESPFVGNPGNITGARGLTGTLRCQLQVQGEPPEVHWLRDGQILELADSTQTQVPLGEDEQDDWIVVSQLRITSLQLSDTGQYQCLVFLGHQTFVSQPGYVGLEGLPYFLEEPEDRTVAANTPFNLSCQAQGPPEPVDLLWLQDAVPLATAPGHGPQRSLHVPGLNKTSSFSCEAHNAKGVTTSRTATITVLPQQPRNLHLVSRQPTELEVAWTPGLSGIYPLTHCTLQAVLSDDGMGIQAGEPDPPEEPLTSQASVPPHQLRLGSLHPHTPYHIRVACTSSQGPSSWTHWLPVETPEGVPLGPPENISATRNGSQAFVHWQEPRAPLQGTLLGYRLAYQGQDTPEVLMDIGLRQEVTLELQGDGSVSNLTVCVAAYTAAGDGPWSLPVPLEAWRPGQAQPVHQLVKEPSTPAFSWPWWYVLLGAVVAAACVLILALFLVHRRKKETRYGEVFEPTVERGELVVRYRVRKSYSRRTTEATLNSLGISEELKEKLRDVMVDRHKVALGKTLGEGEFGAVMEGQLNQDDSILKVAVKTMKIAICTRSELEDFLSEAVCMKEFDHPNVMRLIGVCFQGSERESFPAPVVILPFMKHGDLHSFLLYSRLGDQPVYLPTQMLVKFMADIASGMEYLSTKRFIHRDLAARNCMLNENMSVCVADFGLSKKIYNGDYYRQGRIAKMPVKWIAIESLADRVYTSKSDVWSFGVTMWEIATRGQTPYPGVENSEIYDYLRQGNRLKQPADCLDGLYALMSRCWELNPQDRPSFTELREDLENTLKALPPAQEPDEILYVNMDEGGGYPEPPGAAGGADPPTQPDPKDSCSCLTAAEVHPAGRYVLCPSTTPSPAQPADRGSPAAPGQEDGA

Compound | IC50 [nM]
COc1nc(Nc2ccc(CN3CCC(C)CC3)cc2)nc2[nH]cc(-c3ccc(S(=O)(=O)N(C)C)cc3)c12 [Compound 5, 4-(4-methoxy-2-((4-((4-methylpiperidin-1-yl)methyl)phenyl)amino)-7H-pyrrolo[2,3-d]pyrimidin-5-yl)-N,N-dimethylbenzene-sulfonamide] | < 30
CCN1CCN(Cc2ccc(Nc3nc(OCCOC)c4c(-c5ccc(OCc6ncccn6)cc5F)c[nH]c4n3)cc2)CC1 [Compound 39, N-(4-((4-ethylpiperazin-1-yl)methyl)phenyl)-5-(2-fluoro-4-(pyrimidin-2-ylmethoxy)phenyl)-4-(2-methoxyethoxy)-7H-pyrrolo[2,3-d]pyrimidin-2-amine] | < 30
COCCOc1nc(Nc2ccc(CN(C)C)cc2)nc2[nH]cc(-c3ccc(F)cc3F)c12 [Compound 80, 5-(2,4-difluorophenyl)-N-(4-((dimethylamino)methyl)phenyl)-4-(2-methoxyethoxy)-7H-pyrrolo[2,3-d]pyrimidin-2-amine] | < 30
CN1CCN(Cc2ccc(Nc3nc(NC4CCOCC4)c4c(-c5ccc(F)cc5F)c[nH]c4n3)cc2)CC1 [Compound 75, 5-(2,4-difluorophenyl)-N2-(4-((4-methylpiperazin-1-yl)methyl)phenyl)-N4-(tetrahydro-2H-pyran-4-yl)-7H-pyrrolo[2,3-d]pyrimidine-2,4-diamine] | < 30
COc1nc(Nc2ccc(CN3CCC(C)CC3)cc2)nc2[nH]cc(-c3ccc(O)cc3)c12 [Compound 28, 4-(4-methoxy-2-((4-((4-methylpiperidin-1-yl)methyl)phenyl)amino)-7H-pyrrolo[2,3-d]pyrimidin-5-yl)phenol] | < 30
CCN1CCN(Cc2ccc(Nc3nc(OCCOC)c4c(-c5ccc(OCc6ncccc6C)cc5F)c[nH]c4n3)cc2)CC1 [Compound 112, N-(4-((4-ethylpiperazin-1-yl)methyl)phenyl)-5-(2-fluoro-4-((3-methylpyridin-2-yl)methoxy)phenyl)-4-(2-methoxyethoxy)-7H-pyrrolo[2,3-d]pyrimidin-2-amine] | < 30
CN1CCN(Cc2ccc(Nc3nc(OC4CCCC4)c4c(-c5ccc(F)cc5F)c[nH]c4n3)cc2)CC1 [Compound 55, 4-(cyclopentyloxy)-5-(2,4-difluorophenyl)-N-(4-((4-methylpiperazin-1-yl)methyl)phenyl)-7H-pyrrolo[2,3-d]pyrimidin-2-amine] | < 30
CN1CCN(Cc2ccc(Nc3nc(OCC4CCCO4)c4c(-c5ccc(F)c(Cl)c5)c[nH]c4n3)cc2)CC1 (stereo not drawn) [Compound 77, 5-(3-chloro-4-fluorophenyl)-N-(4-((4-methylpiperazin-1-yl)methyl)phenyl)-4-((tetrahydrofuran-2-yl)methoxy)-7H-pyrrolo[2,3-d]pyrimidin-2-amine] | < 30
COCCOc1nc(Nc2ccc(CN3CCN(C)CC3)cc2)nc2[nH]cc(-c3ccc(OCc4ccc(C)cn4)cc3F)c12 [Compound 105, 5-(2-fluoro-4-((5-methylpyridin-2-yl)methoxy)phenyl)-4-(2-methoxyethoxy)-N-(4-((4-methylpiperazin-1-yl)methyl)phenyl)-7H-pyrrolo[2,3-d]pyrimidin-2-amine] | < 30
CC(C)Oc1nc(Nc2ccc(CN3CCN(C)CC3)cc2)nc2[nH]cc(-c3ccc(F)cc3F)c12 [Compound 69, 5-(2,4-difluorophenyl)-4-isopropoxy-N-(4-((4-methylpiperazin-1-yl)methyl)phenyl)-7H-pyrrolo[2,3-d]pyrimidin-2-amine] | < 30
CCN1CCN(Cc2ccc(Nc3nc(OCCOC)c4c(-c5ccc(OCc6ccccn6)cc5F)c[nH]c4n3)cc2)CC1 [Compound 19, N-(4-((4-ethylpiperazin-1-yl)methyl)phenyl)-5-(2-fluoro-4-(pyridin-2-ylmethoxy)phenyl)-4-(2-methoxyethoxy)-7H-pyrrolo[2,3-d]pyrimidin-2-amine] | < 30
CCOc1nc(Nc2ccc(CN3CCN(C)CC3)cc2)nc2[nH]cc(-c3ccc(F)cc3F)c12 [Compound 59, 5-(2,4-difluorophenyl)-4-ethoxy-N-(4-((4-methylpiperazin-1-yl)methyl)phenyl)-7H-pyrrolo[2,3-d] pyrimidin-2-amine] | < 30
CCNc1nc(Nc2ccc(CN3CCN(C)CC3)cc2)nc2[nH]cc(-c3ccc(F)cc3F)c12 [Compound 54, 5-(2,4-difluorophenyl)-N4-ethyl-N2-(4-((4-methylpiperazin-1-yl)methyl)phenyl)-7H-pyrrolo[2,3-d] pyrimidine-2,4-diamine] | < 30
COCCOc1nc(Nc2ccc(CN3CCC(C)CC3)cc2)nc2[nH]cc(-c3ccc(OCc4ncccn4)cc3F)c12 [Compound 34, 5-(2-fluoro-4-(pyrimidin-2-ylmethoxy)phenyl)-4-(2-methoxyethoxy)-N-(4-((4-methylpiperidin-1-yl)methyl)phenyl)-7H-pyrrolo[2,3-d]pyrimidin-2-amine] | < 30

Second part, the compound after the results:

IC50 [nM] | Compound
< 30 | COCCOc1nc(Nc2ccc(CN3CCN(C)CC3)cc2)nc2[nH]cc(-c3ccc(F)c(Cl)c3)c12 [Compound 50, 5-(3-chloro-4-fluorophenyl)-4-(2-methoxyethoxy)-N-(4-((4-methylpiperazin-1-yl)methyl)phenyl)-7H-pyrrolo[2,3-d]pyrimidin-2-amine]
< 30 | COCCOc1nc(Nc2ccc(CN3CCN(C)CC3)cc2)nc2[nH]cc(-c3ccc(S(=O)(=O)N(C)C)cc3F)c12 [Compound 91, 3-fluoro-4-(4-(2-methoxyethoxy)-2-((4-((4-methylpiperazin-1-yl)methyl)phenyl)amino)-7H-pyrrolo[2,3-d]pyrimidin-5-yl)-N,N-dimethylbenzene-sulfonamide]
< 30 | COCCOc1nc(Nc2ccc(CN3CCC(C)CC3)cc2)nc2[nH]cc(-c3ccc(NS(=O)(=O)c4cc(F)ccc4F)cc3)c12 [Compound 3, 2,5-difluoro-N-(4-(4-(2-methoxyethoxy)-2-((4-((4-methylpiperidin-1-yl)methyl)phenyl)amino)-7H-pyrrolo[2,3-d]pyrimidin-5-yl)phenyl)benzene-sulfonamide]
< 30 | COCCOc1nc(Nc2ccc(CN3CCN(C)CC3)cc2)nc2[nH]cc(-c3ccc(OCc4ccccn4)cc3)c12 [Compound 110, 4-(2-methoxyethoxy)-N-(4-((4-methylpiperazin-1-yl)methyl)phenyl)-5-(4-(pyridin-2-ylmethoxy)phenyl)-7H-pyrrolo[2,3-d]pyrimidin-2-amine]
< 30 | COCCOc1nc(Nc2ccc(CN3CCN(C)CC3)cc2)nc2[nH]cc(-c3ccc(NS(=O)(=O)c4cc(F)ccc4F)cc3)c12 [Compound 1, 2,5-difluoro-N-(4-(4-(2-methoxyethoxy)-2-((4-((4-methylpiperazin-1-yl)methyl)phenyl)amino)-7H-pyrrolo[2,3-d]pyrimidin-5-yl)phenyl)benzene-sulfonamide]
< 30 | COCCOc1nc(Nc2ccc(CN3CCN(C)CC3)cc2)nc2[nH]cc(-c3ccc(S(=O)(=O)N(C)C)cc3)c12 [Compound 79, 4-(4-(2-methoxyethoxy)-2-((4-((4-methylpiperazin-1-yl)methyl)phenyl)amino)-7H-pyrrolo[2,3-d]pyrimidin-5-yl)-N,N-dimethylbenzene-sulfonamide]
< 30 | COCCOc1nc(Nc2ccc(CN3CCN(C)CC3)cc2)nc2[nH]cc(-c3ccc(OCc4cccc(F)n4)cc3F)c12 [Compound 104, 5-(2-fluoro-4-((6-fluoropyridin-2-yl)methoxy)phenyl)-4-(2-methoxyethoxy)-N-(4-((4-methylpiperazin-1-yl)methyl)phenyl)-7H-pyrrolo[2,3-d]pyrimidin-2-amine]

— patent US11407757B2, “Heterocycle compounds as Tyro3, Axl and MerTK (TAM) family of receptor tyrosine kinase inhibitors” (Development Center for Biotechnology, priority 2017, dated 2022)
